Results from patent publication US8980933B2, “Combretastatin analogs for use in the treatment of cancer” (Universitat Bayreuth, priority 2010, dated 2015).
Entries after “also recorded” stand apart in the source; their conditions may differ.

Assays:
[1] = Chemical stability of solutions stored for one month, retested in vitro; type: physicochemical; conditions: solution stored for one month vs freshly prepared; tubulin polymerization and SRB assays
Protocol: (§1) For the biotests compound 5b was dissolved in physiological saline solution. […] Customarily, in vivo applications to animals require only concentrations up to 3 mM. In order to check the chemical stability of such solutions of 5b they were stored for one month and subsequently used in in vitro tests alongside freshly prepared solutions of the same concentrations of 5b.

tubulin = assay: Tubulin Polymerization assay (fluorescence kit); type: biochemical
Protocol: Analysis of tubulin polymerization was performed using the Tubulin Polymerization Assay Kit (Cytoskeleton, USA) according to manufacturer's instructions. The assay is fluorescence-based and tubulin polymerization was followed by measuring RFU (relative fluorescence units) on the SpectraFluor Plus (Tecan, Switzerland) using the following filters: excitation 360 nm, emission 465 nm.

[2] = tested on: H12.1 germ cell tumor cell line; assay: SRB-cytotoxicity assay, H12.1; type: cell-based; conditions: Homo sapiens, 96 h
Protocol: The cytotoxic activity of 5b was established by standard colorimetric tests (SRB- and MTT-assays) against various tumor cell lines of different entities. For the SRB cytotoxicity assay, dose-response curves of the testicular germ cell tumor cell lines exposed to drug concentrations of 0.001-10 μM were established using the sulforhodamine-B (SRB) microcuiture colorimetric assay (Papazisis et al. Optimization of the sulforhodamine B colorimetric assay. J. Immunol. Methods 1997, 208, 151-158) and performed as described in: Müller et al. Failure of activation of caspase-9 induces a higher threshold for apoptosis and cisplatin resistance in testicular cancer. Cancer Res. 2003, 63, 513-521. Briefly, cells were seeded into 96-well plates on day 0, at cell densities previously determined to ensure exponential cell growth during the period of the experiment. On day 1, cells were treated with the drugs dissolved in medium to give the appropriate concentrations for indicated times and the percentage of surviving cells relative to untreated controls was determined on day 5.

[3] = Solubility in physiological saline solution; type: physicochemical; conditions: saline or isotonic, read-out: concentration achieved in physiological saline solution
Protocol: as §1

## COc1ccc(-c2c(-c3cc(Cl)c(OC)c(OC)c3)ncn2C)cc1N [compound 5b, 1-methyl-5-(3-amino-4-methoxyphenyl)-4-(3-chloro-4,5-dimethoxyphenyl)-imidazole]
[1]
  chemical stability in solution (activity retained): No loss of activity; also recorded: persistence of efficacy; also recorded: high, unattenuated activity and efficacy
tubulin
  inhibition of tubulin polymerization: effectively inhibits the polymerization of tubulin
[2]
  IC50: 30 to 50 nM
[3]
  solubility: ≥ 10 mM
